According to patent publication US12139481B2, “Compositions comprising macrocycle derivatives incorporating bridged macrocycles and methods of producing and using same” (Southwestern Oklahoma State University, priority 2015, dated 2024):
pIC50: −log10 of the molar value. Like-named read-outs stand apart in the source and are kept apart here.

What was measured:
[1] = test system: Cryptococcus neoformans ATCC 90113; assay: Antimicrobial microdilution assay against Cryptococcus neoformans (modified CLSI/NCCLS, optical density); type: cell-based; details: for X more potent than Amphotericin B: C. neoformans, ratio of molar IC50 to Amphotericin B; for C. neoformans IC50 / pIC50: in vitro, C. neoformans ATCC 90113; for pIC50: read-out: C. neoformans IC50 (mol/L)
Experimental: Summary: Various macrocyclic derivatives constructed in accordance with the presently disclosed and/or claimed inventive concept(s) were screened in vitro against Cryptococcus neoformans ATCC 90113 using a microdilution assay. The minimum fungicidal concentration (MFC), the lowest test concentration that kills the organism, was determined in broth media.
Antimicrobial assay: Cryptococcus neoformans ATCC 90113 were obtained from the American Type Culture Collection (Manassas, VA.). The susceptibility testing was performed using a modified version of the CLSI (formerly NCCLS) methods (see below), and optical density was used to monitor growth. Samples were serially diluted in 20% DMSO/saline and transferred in duplicate to 96-well flat bottom microplates. Microbial inocula were prepared by correcting the OD630 of cell/spore suspensions in incubation broth RPMI at pH 6.0 to afford final desired target inocula. Amphotericin B (“AMB;” ICN Biomedicals, OH) was used as drug control. The organism concentration was read at 630 nm using the Biotek Powerwave XS plate reader (Bio-Tek instruments, VT) prior to and after incubation. Minimum fungicidal concentrations were determined by removing 5 μL from each clear well, transferring to agar, and incubating until growth was seen. The MFC/MBC is defined as the lowest test concentration that kids the organism (allows no growth on agar).
References for NCCLS methods referenced above: 1 NCCLS. Reference method for broth dilution antifungal susceptibility testing of yeasts, Vol. 22. Approved standard, 2nd ed. Wayne: National Committee for Clinical Laboratory Standards; 2002: 1-51. 2 NCCLS. Reference method for broth dilution antifungal susceptibility testing of conidium forming filamentous fungi, Vol. 18. Proposed standard M38-P. Wayne: National Committee for Clinical Laboratory Standards; 1998: 1-39. 3 NCCLS. Methods for dilution antimicrobial susceptibility tests for bacteria that grow aerobically, Vol. 20. NCCLS Document M7-A5. Wayne: National Committee for Clinical Laboratory Standards; 2000: 1-58.
The term “IC50” as used herein will be understood to refer to a test concentration in mol/L that affords 50% inhibition of the microbe relative to negative and positive controls. […] The abbreviation “MFC” as used herein will be understood to refer to a minimum fungicidal concentration, or the lowest test concentration in mol/L that kills the organism. All IC50s are calculated using the XLfit® fit curve fitting software (ID Business Solutions Ltd, Guildford, Surrey, UK).
General Experimental Procedures. All organisms were obtained from the American Type Culture Collection (Manassas, VA) and include the fungi Candida albicans ATCC 90028, C. glabrata ATCC 90030, C. krusei ATCC 6258, and Cryptococcus neoformans ATCC 90113, and the bacteria Staphylococcus aureus ATCC 29213 and methicillin-resistant S. aureus ATCC 33591 (MRS). All organisms were tested using modified versions of the CLSI (formerly NCCLS) methods. For all organisms, optical density was used to monitor growth (NCCLS, Reference Method for Broth Dilution Antifungal Susceptibility Testing of Yeasts; Approved Standard M27-A2. National Committee on Clinical Laboratory Standards, 2002 22 (15); and NCCLS, Methods for Dilution Antimicrobial Susceptibility Tests for Bacteria that Grow Aerobically; Approved Standard, Seventh Edition M7-A7. National Committee on Clinical Laboratory Standards, 2006. 26(2)).
Samples (dissolved in DMSO) were serially-diluted in 20% DMSO/saline and transferred (10 μL) in duplicate to 96 well flat bottom microplates.

[2] = test system: L. donovani promastigotes; assay: Antileishmanial Alamar Blue assay on promastigotes; type: cell-based, Leishmania donovani; details: for X more potent than Pentamidine: L. donovani, ratio of molar IC50 to Pentamidine
Experimental: Methods: The compounds were screened in vitro against the promastigote forms of the leishmania parasites employing the Alamar Blue assay as discussed below.
Antileishmanial activity of the compounds was tested in vitro against a culture of L. donovani promastigotes, grown in RPMI 1640 medium supplemented with 10% fetal calf serum (FCS, Gibco Chem. Co., Grand Island, NY) at 26° C. A 3-day-old culture was diluted to 5×10^5 promastigotes/mL. Drug dilutions (50-3.1 μg/mL) were prepared directly in cell suspension in 96-well plates. Plates were incubated at 26° C. for 48 hours, and growth of leishmania promastigotes was determined by Alamar Blue assay. Standard fluorescence was measured on a FLUOstar® Galaxy plate reader (BMG Lab Technologies, Ortenberg, Germany) at an excitation wavelength of 544 nm and emission wavelength of 590 nm. Pentamidine and amphotericin B were used as the standard antileishmanial agents. Percent growth was calculated and plotted versus test concentration for computing the IC50 values.

[3] = promastigotes, 48 hours, Alamar Blue
[4] = promastigotes, 48 hours, Alamar Blue, read-out: L. donavani IC50

Q: How did the “X more potent than Amphotericin B” value [1] turn out when `c1ccc(CN2CCCNCCN(Cc3ccccc3)CCCNCC2)cc1` [BME04, Bn2Cyclam] was run?
A: 0.01

Q: What about the “C. neoformans IC50” value [1] of the same molecule?
A: 12.160 mg/L

Q: And the pIC50 [1]?
A: 4.50

Q: And the “X more potent than Pentamidine” value [2]?
A: 0.77

Q: What about the “L. donovani IC50” value [2, 3] of the same molecule?
A: 2.63 mg/L

Q: And the pIC50 [2, 4]?
A: 5.16

Q: Which “X more potent than Pentamidine” value [2] does the source give for `Clc1cc(CN2CCCNCCN(Cc3cc(Cl)nc(Cl)c3)CCCNCC2)cc(Cl)n1` [DJD29, (DCP)2Cyclam] here?
A: 0.28

Q: And the “L. donovani IC50” value [2, 3]?
A: 9.76 mg/L

Q: And the pIC50 [2, 4]?
A: 4.73

Q: Which results are given for `c1cc(CN2CCCN3CCNCCCN(CC3)CC2)ccc1CN1CCCN2CCNCCCN(CC2)CC1` [JGL44, p-CB-H2Bcyclams]?
A: X more potent than Amphotericin B [1]: 0.73; C. neoformans IC50 [1]: 0.180 mg/L; pIC50 [1]: 6.49; X more potent than Pentamidine [2]: 0.11; L. donovani IC50 [2, 3]: 28.08 mg/L; pIC50 [2, 4]: 4.30

Q: `Cl.Cl.Cl.Cl.Cl.Cl.Cl.Cl.c1cc(CN2CCNCCCN3CCN(CC3)CC2)ccc1CN1CCNCCCN2CCN(CC2)CC1` [OB45B, p-SB-homocyclens HCl salt] was tested. Which “X more potent than Amphotericin B” value [1] did it give?
A: 0.67

Q: What about the “C. neoformans IC50” value [1] of the same molecule?
A: 0.290 mg/L

Q: And the pIC50 ([1]; HCl salt)?
A: 6.45

Q: What about the “X more potent than Pentamidine” value [2] of the same molecule?
A: 0.13

Q: And the “L. donovani IC50” value [2, 3]?
A: 34.55 mg/L

Q: What about the pIC50 ([2]; promastigotes, 48 hours, Alamar Blue, HCl salt, read-out: L. donavani IC50) of the same molecule?
A: 4.37

Q: Which “X more potent than Amphotericin B” value [1] does the source give for `CC(=O)[O-].Clc1cc(CN2CCNCCN3CCN(CC3)CC2)cc(Cl)n1.F[P-](F)(F)(F)(F)F.[Ni+2]` [OB106, [Ni(dcp1-SB-cyclen)(OAc)]PF6] here?
A: 0.38

Q: And the “C. neoformans IC50” value [1]?
A: 0.390 mg/L

Q: And the pIC50 [1]?
A: 6.20

Q: And the “X more potent than Pentamidine” value [2]?
A: 0.14

Q: What about the “L. donovani IC50” value [2, 3] of the same molecule?
A: 23.19 mg/L

Q: And the pIC50 [2, 4]?
A: 4.43

Q: How did the “X more potent than Pentamidine” value [2] turn out when `N=C(N)c1ccc(OCCCCCOc2ccc(C(=N)N)cc2)cc1` [PENT, Pentamidine, reference compound] was run?
A: 1.00

Q: And the pIC50 ([2]; Leishmania donovani, 48 h, read-out: L. donavani IC50 (mol/L))?
A: 5.27

Q: What about the IC50 ([2]; Leishmania donovani, promastigotes, 48 hours, Alamar Blue, read-out: L. donovani IC50) of the same molecule?
A: 1.81 mg/L

Q: What about the pIC50 ([2]; Leishmania donovani, read-out: IC50 against L. donovani) of the same molecule?
A: 5.27

Q: With `CC(=O)[O-].CC(=O)[O-].CC(=O)[O-].CC(=O)[O-].O=[N+]([O-])c1ccc(CC2CNCCN(Cc3ccc(CN4CCCN5CCN(CCCNCC4)CC5)cc3)CCCN3CCN(CC3)C2)cc1.[Zn+2].[Zn+2]` (stereo not shown) [SJA235, [Zn2(bis-SB-C-Ar-NO2)(OAc)4]] as the molecule, how does the “X more potent than Amphotericin B” value [1] read?
A: 0.13

Q: What about the “C. neoformans IC50” value [1] of the same molecule?
A: 1.930 mg/L

Q: What about the “X more potent than Pentamidine” value [2] of the same molecule?
A: 0.16

Q: And the “L. donovani IC50” value [2, 3]?
A: 34.77 mg/L

Q: For `CC(=O)[O-].F[P-](F)(F)(F)(F)F.[Zn+2].c1ccc(CN2CCCNCCN(Cc3ccccc3)CCCNCC2)cc1` [SLK07B, [Zn(Bn2Cyclam)(OAc)]PF6], which “X more potent than Amphotericin B” value [1] is on record?
A: 0.01

Q: And the “C. neoformans IC50” value [1]?
A: 19.840 mg/L

Q: What about the “X more potent than Pentamidine” value [2] of the same molecule?
A: 1.16

Q: And the “L. donovani IC50” value [2, 3]?
A: 2.97 mg/L

Q: Which “X more potent than Amphotericin B” value [1] does the source give for `O.[Cl-].[Cl-].[Mn+2].c1ccc(CN2CCCNCCN(Cc3ccccc3)CCCNCC2)cc1` [TJH397A, Mn(Bn2Cyclam)Cl2•H2O] here?
A: 0.01

Q: What about the “C. neoformans IC50” value [1] of the same molecule?
A: 16.870 mg/L

Q: And the pIC50 [1]?
A: 4.49

Q: What about the “X more potent than Pentamidine” value [2] of the same molecule?
A: 1.21

Q: What about the “L. donovani IC50” value [2, 3] of the same molecule?
A: 2.31 mg/L

Q: And the pIC50 [2, 4]?
A: 5.36

Q: What does the source list for `[Cl][Mn-2]([Cl])([Cl])[Cl].[Cl][Mn-2]([Cl])([Cl])[Cl].[Mn+2].[Mn+2].c1cc(CN2CCCN3CCNCCCN(CC3)CC2)ccc1CN1CCCN2CCNCCCN(CC2)CC1` [TJH412, [Mn2(H2-p-CB-cyclams)][MnCl4]2]?
A: X more potent than Amphotericin B [1]: 0.13; C. neoformans IC50 [1]: 1.990 mg/L; pIC50 [1]: 5.73; X more potent than Pentamidine [2]: 0.17; L. donovani IC50 [2, 3]: 33.37 mg/L; pIC50 [2, 4]: 4.50

Q: Which results are given for `CC(=O)[O-].CC(=O)[O-].F[P-](F)(F)(F)(F)F.F[P-](F)(F)(F)(F)F.O.[Zn+2].[Zn+2].c1cc(CN2CCCN3CCNCCCN(CC3)CC2)ccc1CN1CCCN2CCNCCCN(CC2)CC1` [TJH417B, [Zn2(H2-p-CB-cyclams)(OAc)2][PF6]2•H2O]?
A: X more potent than Amphotericin B [1]: 0.08; C. neoformans IC50 [1]: 3.120 mg/L; X more potent than Pentamidine [2]: 0.17; L. donovani IC50 [2, 3]: 34.93 mg/L

Q: Which “X more potent than Pentamidine” value [2] does the source give for Fe(Bn2Cyclam)Cl2•0.5 H2O [TJH398A] here?
A: 1.20

Q: And the “L. donovani IC50” value [2, 3]?
A: 2.28 mg/L

Q: What about the pIC50 [2, 4] of the same molecule?
A: 5.35

Q: How did the “X more potent than Amphotericin B” value [1] turn out when “[Co2(m-CB-Homocyclens)(OAc)2.6][PF6]1.4 [CDG036]” was run?
A: 0.08

Q: What about the “C. neoformans IC50” value [1] of the same molecule?
A: 3.040 mg/L

Q: And the pIC50 [1]?
A: 5.53

Q: What about the “X more potent than Pentamidine” value [2] of the same molecule?
A: 0.25

Q: And the “L. donovani IC50” value [2, 3]?
A: 22.23 mg/L

Q: And the pIC50 [2, 4]?
A: 4.67

Q: What does the source list for “[Cu2(m-CB-Homocyclens)(OAc)2.5][PF6]1.5 [CDG035]”?
A: X more potent than Amphotericin B [1]: 0.08; C. neoformans IC50 [1]: 3.260 mg/L; pIC50 [1]: 5.51; X more potent than Pentamidine [2]: 0.21; L. donovani IC50 [2, 3]: 26.37 mg/L; pIC50 [2, 4]: 4.60

Q: For “[Ni3(tris-CB-Cyclams)(OAc)3][PF6]3•2.5H2O [BNS23]”, which “X more potent than Amphotericin B” value [1] is on record?
A: 0.03

Q: What about the “C. neoformans IC50” value [1] of the same molecule?
A: 12.110 mg/L

Q: And the pIC50 [1]?
A: 5.14

Q: What about the “X more potent than Pentamidine” value [2] of the same molecule?
A: 0.28

Q: What about the “L. donovani IC50” value [2, 3] of the same molecule?
A: 31.63 mg/L

Q: And the pIC50 [2, 4]?
A: 4.72

Q: [Zn(dcp1-SB-cyclen)(OAc)]PF6 [OB110A] was tested. Which “X more potent than Amphotericin B” value [1] did it give?
A: 0.30

Q: What about the “C. neoformans IC50” value [1] of the same molecule?
A: 0.610 mg/L

Q: What about the pIC50 [1] of the same molecule?
A: 6.09

Q: And the “X more potent than Pentamidine” value [2]?
A: 0.11

Q: What about the “L. donovani IC50” value [2, 3] of the same molecule?
A: 38.32 mg/L

Q: What about the pIC50 [2, 4] of the same molecule?
A: 4.30

Q: For p-CB-cyclam-cyclen [CMB008D], which “X more potent than Amphotericin B” value [1] is on record?
A: 0.17

Q: And the “C. neoformans IC50” value [1]?
A: ≤ 0.800 mg/L

Q: And the pIC50 [1]?
A: 5.84

Q: And the “X more potent than Pentamidine” value [2]?
A: 0.08

Q: What about the “L. donovani IC50” value [2, 3] of the same molecule?
A: 38.75 mg/L

Q: And the pIC50 [2, 4]?
A: 4.16

Q: What does the source list for p-SB-cyclens HCl salt [OB24B]?
A: X more potent than Amphotericin B [1]: 0.31; C. neoformans IC50 [1]: 0.670 mg/L; pIC50 [1]: 6.11; X more potent than Pentamidine [2]: 0.14; L. donovani IC50 [2, 3]: 32.40 mg/L; pIC50 [2, 4]: 4.43
